Source: EP3178809A1, “HYBRID MOLECULE WITH STRUCTURAL AND ACTIVITY ELEMENTS OF RESVERATROL AND DIALLYL SULFIDE” (Albert-Ludwigs-Universität Freiburg, priority 2015, dated 2017)
Values joined by “and” are separate entries in the source; they are usually repeats but may differ in a detail not shown here. Equal entries are not always repeated.

How the values were obtained:
[1] = system: humane Magenkarzinomzellen MKN-45; assay: Apoptosis induction in tumour cells (morphological criteria, duplicate assays); type: cell-based, human; details: for Konzentration, bei der der maximale Apoptose-auslösende Effekt erzielt wird: MKN-45, 3,5 Stunden Inkubation; for Apoptoseinduktion in Tumorzellen: MKN-45, 3 Stunden, 37 °C, 5 % CO2; for Konzentration für optimale Wirkung: induction of apoptosis in tumour cells, single agents, combinations with Resveratrol, or hybrid
Experimental: Nach 3 Stunden bei 37 ° C, 5 % CO2 wurden die Prozentsätze apoptotischer Zellen bestimmt. […] Nach 3 Stunden bei 37 ° C, 5 % CO2 wurden die Prozentsätze apoptotischer Zellen bestimmt.
Die Daten basieren allesamt auf der quantitativen Bestimmung der Apoptose mittels der klassischen morphologischen Kriterien Kernkondensation, Kernfragmentation und Membrane Blebbing nach definierten Inkubationszeiten bei 37°C.
Die Ansätze erfolgten bei einer Zelldichte von 125 000 Zellen/ml in 96-Loch-Platten mit einem Reaktionsvolumen von 100 µl. Alle Ansätze wurden als Doppelansätze geführt und pro Messpunkt wurden mindestens 200 Zellen morphologisch bewertet. Eine detaillierte Aufstellung der verwendeten Medien, Inhibitoren, Zellen ist in den Arbeiten Scheit and Bauer, 2015; Bauer und Zarkovic, 2014; Bauer et al., 2014; Bauer, 2015 beschrieben.
Um zu klären, ob das Hybridmolekül aus Struktur- und Wirkungselementen von Resveratrol und Diallyldisulfid in der Lage ist, Apoptose in Tumorzellen zu induzieren, und dabei zu prüfen, ob sich durch die Kombination der Einzelfunktionen in einem Molekül der Synergieeffekt bündeln ließ, wurden steigende Konzentrationen des Hybridmoleküls zu Magenkarzinomzellen der Linie MKN-45 gegeben. Die als Parallelansätze geführten Ansätze wurden sowohl ohne als auch in Anwesenheit von 2 mM des Singulettsauerstofffängers Histidin inkubiert, um zu prüfen, ob der durch das Hybridmolekül ausgelöste Effekt durch Singulettsauerstoff vermittelt wird. Zum Vergleich wurde das gleiche Experiment mit steigenden Konzentrationen DADS durchgeführt, ebenfalls mit und ohne Histidinzugabe. Nach 3,5 Stunden Inkubation wurde der Prozentsatz apoptotischer Zellen bestimmt.

[2] = system: NO Dioxygenase; assay: Test for inhibition of NO dioxygenase (enhanced effect of NO donor DEA NONOate on superoxide-producing cells); type: cell-based
Excerpt: Die Messung erfordert, dass durch geeignete Maßnahmen, wie bei Scheit und Bauer, 2015 beschrieben, die Tumorzellkatalase maximal inhibiert, die Hemmwirkung von H2O2 auf ·NO und Peroxynitrit durch Anwesenheit eines Katalasemimetikums verhindert und de novo Synthese von ·NO durch die Anwesenheit des NOS Inhibitors L-NAME verhindert wird.
(§1) Die Messung der extrazellulären Superoxidanionenkonzentration von Tumorzellen sowie die Bestrahlungstechnik mit Niedrigdosis-Gammastrahlung wird in der Arbeit Temme and Bauer, 2013 beschrieben. Die Hemmung der NOD wird bei Scheit and Bauer, 2015, beschrieben. Viele Versuchsergebnisse wurden in den Figuren dargestellt.

[3] = system: nichtmaligne, diploide humane Fibroblasten Alpha-1; assay: Apoptosis induction in non-malignant cells (morphological criteria); type: cell-based, human; details: Alpha-1 fibroblasts, 3 Stunden, 37 °C, 5 % CO2
Experimental: Figur 6: Diallyldisulfid und Dipropyldisulfid, nicht aber Diallylsulfid lösen selektiv in Tumorzellen interzelluläres Signaling und Apoptose aus. • A. 12 500 humane Magenkarzinomzellen MKN-45 oder 10 000 nichtmaligne, diploide humane Fibroblasten Alpha-1 wurden in Doppelansätzen in Serum-haltigen Medium mit den angegebenen Konzentrationen an Diallyldisulfid (DADS), Dipropyldisulfid (DPDS) oder Diallylsulfid (DAS) versetzt. Nach 3 Stunden bei 37 ° C, 5 % CO2 wurden die Prozentsätze apoptotischer Zellen bestimmt. […] Nach 3 Stunden bei 37 ° C, 5 % CO2 wurden die Prozentsätze apoptotischer Zellen bestimmt. Das Ergebnis zeigt, dass die durch DADS ausgelöste Apoptose von der Wirkung von Singulettsauerstoff, Superoxidanionen, Caspase-8, NO und HOCI abhängig ist.
Die Daten basieren allesamt auf der quantitativen Bestimmung der Apoptose mittels der klassischen morphologischen Kriterien Kernkondensation, Kernfragmentation und Membrane Blebbing nach definierten Inkubationszeiten bei 37°C. Parallel wurden diese Kriterien mithilfe der TUNEL-Reaktion gesichert, wodurch die für die Apoptose charakteristischen DNA-Strangbrüche nachgewiesen wurden, und die Abhängigkeit der Apoptoseinduktion von Caspase-3 und Caspase-9 überprüft, wodurch sichergestellt war, dass die Apoptose über den mitochondrialen Weg abläuft. […]

[4] = target: T1, protektive Katalase von Tumorzellen (Homo sapiens, UniProt P04040); assay: Inactivation of protective catalase: sensitisation of MKN-45 cells to peroxynitrite-induced apoptosis; type: cell-based; details: 150 µM DADS for 20 min or 50 mM 3-AT, apoptosis 100 min after PON
T1 construct: endogenous in cells; host or cells: MKN-45 (human gastric carcinoma cell line)
T1 sequence (P04040 2-527 limits assumed): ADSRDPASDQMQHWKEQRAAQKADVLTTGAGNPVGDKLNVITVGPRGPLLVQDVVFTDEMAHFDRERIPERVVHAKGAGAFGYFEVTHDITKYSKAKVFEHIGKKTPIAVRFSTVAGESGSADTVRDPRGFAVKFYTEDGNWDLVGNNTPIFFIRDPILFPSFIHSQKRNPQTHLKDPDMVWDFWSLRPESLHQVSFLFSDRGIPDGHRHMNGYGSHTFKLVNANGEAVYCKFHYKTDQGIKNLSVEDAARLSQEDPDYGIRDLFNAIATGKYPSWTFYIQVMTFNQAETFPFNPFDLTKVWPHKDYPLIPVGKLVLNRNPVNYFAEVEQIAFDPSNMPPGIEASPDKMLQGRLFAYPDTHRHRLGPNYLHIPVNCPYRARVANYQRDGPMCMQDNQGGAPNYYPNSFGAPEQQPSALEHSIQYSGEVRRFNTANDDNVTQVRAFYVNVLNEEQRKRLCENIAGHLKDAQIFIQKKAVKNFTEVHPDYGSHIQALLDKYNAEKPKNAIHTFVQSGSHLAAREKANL
Experimental: Figur 8: DADS führt zur Inaktivierung der protektiven Katalase von Tumorzellen • A. Humane MKN-45 Tumorzellen enthielten entweder zunächst keine Zusätze (Kontrolle), 50 mM des Katalasehemmers 3-AT oder wurden für 20 Minuten mit 150 µM DADS behandelt. Nach einem Waschschritt und der Verdünnung der Zellkonzentration auf 6000 Zellen / 100 µl Ansatz wurde Peroxynitrit (PON) in den angegebenen Konzentrationen zugegeben. Nach 100 Minuten erfolgte die Bestimmung der apoptotischen Zellen in Doppelansätzen. Wie die Kontrolle zeigt, sind die Tumorzellen vor der Apoptose-auslösenden Wirkung von Peroxynitrit geschützt.
Figur 8 A zeigt, dass die kurzzeitige Behandlung von Tumorzellen mit DADS den gleichen Effekt hat, wie die Zugabe des Katalasehemmstoffs 3-Aminotriazol (3-AT), nämlich die Zellen für die Apoptose-auslösende Wirkung von exogen zugegebenem Peroxynitrit (PON) zu aktivieren. Die Sensitivierung für die Wirkung von PON ermöglicht die selektive Testung der Inaktivierung der membranständigen Katalase von Tumorzellen (Heinzelmann and Bauer, 2010; Böhm et al., 2015). Im Gegensatz zu DADS führt DAS zu keiner Inaktivierung der Katalase (Figur 8 F). […]

[5] = target: T2, NOX1 (Homo sapiens, UniProt Q9Y5S8); assay: Parallel control measurement of NOX1 activity / extracellular superoxide anion production; type: cell-based
T2 construct: endogenous in cells
T2 sequence (Q9Y5S8 1-564): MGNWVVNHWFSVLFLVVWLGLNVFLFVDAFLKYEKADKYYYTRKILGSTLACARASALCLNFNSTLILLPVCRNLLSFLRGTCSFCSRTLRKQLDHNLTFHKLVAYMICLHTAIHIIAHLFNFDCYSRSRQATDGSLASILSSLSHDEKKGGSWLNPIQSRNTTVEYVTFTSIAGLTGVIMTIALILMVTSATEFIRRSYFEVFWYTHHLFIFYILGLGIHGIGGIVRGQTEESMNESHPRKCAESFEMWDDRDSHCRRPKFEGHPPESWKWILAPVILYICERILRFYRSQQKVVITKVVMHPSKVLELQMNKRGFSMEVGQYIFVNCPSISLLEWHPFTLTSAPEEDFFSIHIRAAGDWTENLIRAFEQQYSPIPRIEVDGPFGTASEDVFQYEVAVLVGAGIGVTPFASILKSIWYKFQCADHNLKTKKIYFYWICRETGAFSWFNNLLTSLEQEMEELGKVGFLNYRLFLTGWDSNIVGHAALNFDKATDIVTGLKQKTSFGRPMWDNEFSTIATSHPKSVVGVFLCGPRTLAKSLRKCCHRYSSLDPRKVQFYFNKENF
T2 sequence (P13498 1-195 partner): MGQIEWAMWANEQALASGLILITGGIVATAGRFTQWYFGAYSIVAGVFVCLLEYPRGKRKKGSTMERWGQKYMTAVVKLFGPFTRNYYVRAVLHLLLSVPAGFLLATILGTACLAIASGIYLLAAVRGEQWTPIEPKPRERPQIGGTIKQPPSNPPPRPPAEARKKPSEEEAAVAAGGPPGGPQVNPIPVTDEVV
Experimental: Inkubationsbedingungen wie in Figur 11. Zusätzlich wurden 5 µM AEBSF oder 100 µM AEBSF zugegeben. 5 µM AEBSF führen zu einer Hemmung um nur 20 % von NOX1, während 100 µM mehr als 90 % hemmen, wie parallel durchgeführte Kontrollmessungen ergeben haben. Die geringfügige Hemmung durch 5 µM AEBSF reicht bereits aus, den Synergieeffekt aufzuheben und die Apoptoseinduktion auf das Niveau der alleinige Gabe von DADS zu drücken. Dies zeigt, dass tatsächlich die NOX-stimulierende Wirkung von Resveratrol für den Synergieeffekt notwendig war.
as §1
Um zu klären, ob der durch das Hybridmolekül gebündelte Synergieeffekt tatsächlich durch die NOX-stimulierende Wirkung des von Resveratrol abgeleiteten Anteils mitgetragen wird, wurde die Wirkung des Hybridmoleküls in Gegenwart von 5 µM AEBSF untersucht. Für diese Hemmstoffkonzentration wurde in Parallelexperimenten ermittelt, dass sie eine Hemmung der extrazellulären Superoxidanionenproduktion um ca. 20 % zur Folge hat. […]

## C=CCSSCC=C [DADS, Diallyldisulfid]
[1]; Homo sapiens, MKN-45, 3.5 h, read-out: Konzentration für den gleichen Effekt (ca. 40 Prozent des Maximalwertes der Apoptoseinduktion)
  EC40: 1100 nM
[1]; alleinige Gabe
  Konzentration, bei der der maximale Apoptose-auslösende Effekt erzielt wird: 10 µM
[1]
  Apoptoseinduktion in Tumorzellen: konzentrationsabhängig zur Apoptose
[2]
  Hemmung der NO Dioxygenase: Hemmung dieses Enzyms
[3]
  Apoptoseinduktion in normalen Zellen: nicht aber bei den normalen Zellen
[4]
  Wirkung auf die protektive Katalase (sensitisation to peroxynitrite): gleichen Effekt wie der Katalasehemmstoff

## NCCc1ccc(S(=O)(=O)F)cc1 [AEBSF, 4-(2-Aminoethyl)benzenesulfonyl fluoride]
[5]; 5 µM
  Hemmung von NOX1 / der extrazellulären Superoxidanionenproduktion: 20%
[5]; 100 µM
  Hemmung von NOX1 / der Superoxidanionensynthese: > 95% and > 90%

## C=CCSSCCCOc1cc(/C=C/c2ccc(O)cc2)cc(OCCCSSCC=C)c1 [Hybridmolekül]
[1]; 1 nM, MKN-45, 3,5 Stunden
  Prozent des Maximalwertes der Apoptoseinduktion: ca. 40 Prozent
[1]
  Konzentration, bei der der maximale Apoptose-auslösende Effekt erzielt wird: 0.01 µM
  Konzentration für optimale Wirkung: 3 to 30 nM
[1]; plus 0,9 µM Resveratrol, 0.3 µM DADS or 2,5 µM NOR-NOHA, MKN-45, 3,5 Stunden
  Steigerung der Wirkung durch Zugabe von Einzelkomponenten: nicht steigern
[1]; shift of concentration-effect curves, apoptosis in MKN-45
  wirksamer als Diallyldisulfid: ~1000 -fach

## CCCSSCCC [DPDS, Dipropyldisulfid]
[1]
  Apoptoseinduktion in Tumorzellen: konzentrationsabhängig zur Apoptose
[3]
  Apoptoseinduktion in normalen Zellen: nicht aber bei den normalen Zellen

## Epothilon B
[2]
  Hemmung der NO Dioxygenase: Hemmung dieses Enzyms

## O=c1c(O)c(-c2ccc(O)c(O)c2)oc2cc(O)cc(O)c12 [Quercitin]
[2]
  Hemmung der NO Dioxygenase: Hemmung dieses Enzyms

## CC(=O)O[C@H]1C(=O)[C@@]2(C)[C@H]([C@H](OC(=O)c3ccccc3)[C@]3(O)C[C@H](OC(=O)[C@H](O)[C@@H](NC(=O)c4ccccc4)c4ccccc4)C(C)=C1C3(C)C)[C@]1(OC(C)=O)CO[C@@H]1C[C@@H]2O [Taxol]
[1]; from Tabelle 2
  wirksamer in Bezug auf Induktion der Apoptose in Tumorzellen als Diallyldisulfid: ≥ 10 -fach
[1]
  Konzentration für optimale Wirkung: 900 to 3800 nM
[2]
  Hemmung der NO Dioxygenase: Hemmung dieses Enzyms

## C=CCSCC=C [DAS, Diallylsulfid]
[1]
  Apoptoseinduktion in Tumorzellen: keine Aktivität
[4]
  Wirkung auf die protektive Katalase (sensitisation to peroxynitrite): keine Wirkung auf die protektive Katalase
